Assay results reported in patent US20110293559A1, “CATABOLIC AGENTS” (priority 2008, published 2011).
Where two headings read alike, the source gives them in different places.

Legend:
[1] = test system: MMP13 gene expression; assay: qPCR MMP13 gene expression in cartilage explants; type: cell-based
Protocol: (§1) The medium was removed after the nominated time and washed once with DMEM then replaced with DMEM medium containing 50 μg/ml ascorbate, 10 mM HEPES, gentamycin and supplemented with 1× insulin-transferrin-selenium (ITS; Sigma). For qPCR studies the explants were first allowed to equilibriate in serum containing medium for 3 days, then washed 3 times in serum-free DMEM before the treatment as described above. For long term culture following 2 hour cytokine treatment explants were treated immediately following their excision from the joint, then cultured for 4 weeks in serum-free DMEM containing ITS, ascorbate, HEPES and gentamycin. The culture medium was changes 3 times a week.
Quantitative polymerase chain reaction (qPCR) using the fluorescent dye SYBR Green (Eurogentec, Belgium) was used to determine the absolute expression levels of ADAMTS4 and MMP-13 between explants. Real-time PCR reactions were carried out in 25 μl volumes in a 96-well plate (Applied Biosystems™) containing 1× buffer (10×), 3.5 mM MgCl2, 200 μM dNTPs, 0.3 μM of sense and antisense primers, 0.025 U enzyme and 1:66000 SYBR GreenI®. All reactions were made using gPCR™ Core Kit for SYBR Green I® (Eurogentec). At the end of each reaction, the cycle threshold (CT) was manually setup at the level that reflected the best kinetic PCR parameters, and melting curves were acquired and analysed. Absolute values for the gene of interest were calculated from standard curves generated using serially diluted plasmid cloned and sequence verified template (ng DNA) and were normalized to the housekeeping gene 18S rRNA.

[2] = test system: immature articular cartilage explants; assay: Disc-core cartilage explant integration culture with histology; type: cell-based
Source text: as §1, with “Six millimetre diameter cartilage explants from immature articular cartilage containing 3 mm diameter inner cores, both created using punch biopsy tools (Steifel), were placed in Dulbecco's modified Eagles medium (DMEM) culture medium containing various concentrations of interleukin-1β or tumour necrosis factor α (TNFα; Peprotech), or, the culture medium without cytokine as a control. The medium” for “The medium”
Four week core and disc cultures were fixed with neutral-buffered formyl-saline and left overnight at 4 C. The explants were then processed for wax embedding. Ten micron sections were cut using a microtome, and sections dewaxed and rehydrated in a descending series of alcohols. Sections were stained with haemotoxylin (1 minute), washed in water and then stained with Safranin-O (2 minutes) washed briefly in water and then dehydrated, dipped in xylene and then mounted in DPX liquid under coverslips.

[3] = test system: cartilage; settings: in vitro, cited from earlier work
[4] = test system: immature articular cartilage explants; assay: Mechanical push-out test of disc/ring interface; type: cell-based; settings: FIG. 2, 3 weeks in culture, n=4
Source text: Six millimetre diameter cartilage explants from immature articular cartilage containing 3 mm diameter inner cores, both created using punch biopsy tools (Steifel), were placed in Dulbecco's modified Eagles medium (DMEM) culture medium containing various concentrations of interleukin-1β or tumour necrosis factor α (TNFα; Peprotech), or, the culture medium without cytokine as a control. The medium was removed after the nominated time and washed once with DMEM then replaced with DMEM medium containing 50 μg/ml ascorbate, 10 mM HEPES, gentamycin and supplemented with 1× insulin-transferrin-selenium (ITS; Sigma). For qPCR studies the explants were first allowed to equilibriate in serum containing medium for 3 days, then washed 3 times in serum-free DMEM before the treatment as described above. […]
Adhesive properties of the disc/ring interface after 3-weeks in culture were assessed using a push-out test (n=4). Thickness of the sample was measured using calipers. […] A computer activated micro-stepper controlled the displacement of the push-out rod (0.05 mm/min), whilst a load cell (100N) coupled to the rod measured the push-out force. The adhesive strength was calculated from the maximum force measured at failure per unit of interfacial area.

CC1=C(/C=C/C(C)=C/C=C/C(C)=C/C(=O)O)C(C)(C)CCC1 [Retinoic acid, reference compound]
increase in MMP13 gene expression ([1]; 100 μM retinoic acid, 2 hour incubation, P<0.03, n=3 (FIG. 6)): approximately 3 fold

IL1β: catabolic cytokine, member of the interleukin-1 superfamily
increase in MMP13 gene expression ([1]; 25 ng/ml IL1β, 2 hours, P>0.116, n=3 (FIG. 3)): 1.64 fold | MMP13 gene expression, effect of increasing concentrations ([1]; 12.5-100 ng/ml for 2 hours): increase in MMP13 gene expression | integration between disc and core cartilages ([2]; 10 ng/ml for 24 hours, unsupplemented culture medium, cultured for a further 2 weeks (FIG. 1A)): enhances integration | chondrocyte migration in the interfacial matrix ([2]; 25 ng/ml IL1β for 2 hours, then 4 weeks culture, high power histology (FIG. 9)): presence of migrating chondrocytes within the interfacial matrix | integration, assessed qualitatively through retention of matrix integrity (safranin-O histology) ([2]; 25 ng/ml IL1β for 2 hours, then 4 weeks serum-free culture with ITS (FIG. 8)): best achieved | cartilage integration ([3]; 1 pg/ml or 100 pg/ml, 14 days): not consistent | cartilage integration ([3]; 10 pg/ml, incubation of the cartilage for 14 days): enhanced cartilage integration | force to push out the explant from the disc versus untreated explants [4]: almost six times more force
